pIC50: −log10 of the molar value.
How the values were obtained:
panel of protein kinases = assay: Protein kinase panel profiling (whole panel); type: biochemical; conditions: 10 μM EP009
Description: (§1) Achieving JAK3 selectivity remains a significant challenge in the development of new small molecules for the treatment of cancer and immune-derived diseases. As such, the inventors employed cell-based screening assays of small-molecule libraries based upon the chemical scaffold of the established JAK3 inhibitor NC1153 (Stepkowski et al., J Immunol. (2005), 175(7):4236-4246) EP009 (FIG. 2A) was selected as a lead compound due to improved intrinsic stability (>95% purity in various solvents at 37° C. for 24 hours; FIG. 3) and high-degree of JAK3 selectivity. To test JAK3 versus JAK2 specificity of EP009, the IL-2/JAK3-dependent Kit225, and IL-3/JAK2-dependent BaF/3 cell lines were used. Kit225 and BaF/3 cells growing in the presence of IL-2 or IL-3, respectively, were treated with ascending concentrations of EP009 for 12 hours and cellular JAK3 and JAK2 tyrosine phosphorylation levels detected by Western blot analysis (FIGS. 2B and 2C). Following densitometric analysis, EP009 was determined to dose-dependently reduce IL-2-mediated JAK3 tyrosine phosphorylation with a cellular 50% inhibitory concentration (IC50) between 10 and 20 μM (FIG. 2B). […] To globally evaluate specificity, the inhibitory activity of EP009 was measured against a panel of protein kinases distributed throughout the kinome using the scanEDGE profiling service (KINOMEscan). […]

ALK = ALK (Homo sapiens, UniProt Q9UM73); assay: Kinase panel: ALK; type: biochemical; conditions: 10 μM EP009
Description: as §1

AXL = AXL (Homo sapiens, UniProt P30530); assay: Kinase panel: AXL; type: biochemical; conditions: 10 μM EP009
Description: as §1

EPHA2 = EPHA2 (Homo sapiens, UniProt P29317); assay: Kinase panel: EPHA2; type: biochemical; conditions: 10 μM EP009
Description: as §1

FAK = FAK (Homo sapiens, UniProt Q05397); assay: Kinase panel: FAK; type: biochemical; conditions: 10 μM EP009
Description: as §1

PAK4 = PAK4 (Homo sapiens, UniProt O96013); assay: Kinase panel: PAK4; type: biochemical; conditions: 10 μM EP009
Description: as §1

JAK3 = JAK3 (Homo sapiens, UniProt P52333); assay: IL-2-mediated JAK3 tyrosine phosphorylation in Kit225 cells (IP/Western blot, densitometry); type: cell-based; set-up: cellular JAK3 and JAK2 tyrosine phosphorylation levels detected by Western blot analysis; endogenous in cells; host or cells: Kit225; conditions: 12 hours, densitometric analysis, read-out: cellular IC50, IL-2-mediated JAK3 tyrosine phosphorylation
Description: FIGS. 2A-2F. Selective inhibition of JAK3 by EP009 results in loss of JAK3-dependent tumor cell line viability with no detectable off-target effects in key cell types. (A) Chemical structure of EP009 (M.W. 224.34). (B) Kit225 or (C) BaF/3 cells cultured in the presence of IL-2 or IL-3, respectively, were treated with vehicle (PBS; lane a) or increasing amounts of EP009 (0-50 μM; lanes b-h) for 12 hours. Cells were then lysed, clarified, and immunoprecipitated (IP) with anti-JAK3 (α-JAK3) or anti-JAK2 (α-JAK2), and subjected to Western blot (WB) analysis with anti-phosphotyrosine (α-pY). Blots were stripped and reprobed with corresponding antibody to verify equivalent protein loading. […] (E) Kit225 or BaF/3 cells were cultured with increasing amounts of EP009 (0-10 μM) for 72 hours and cell viability measured with the MTS tetrazolium salt assay. Values represent mean absorbance (OD490-OD650 nm) normalized to vehicle (PBS) treated control cells, while error bars represent the standard deviation (n=3). (F) HEK293, HEPG2, or naïve primary human PBMCs were cultured with increasing amounts of EP009 (0-10 μM) for 72 hours and cell viability measured with the MTS tetrazolium salt assay. Values represent mean absorbance (OD490-OD650 nm) normalized to vehicle (PBS) treated control cells, while error bars represent the standard deviation (n=3). […]

Chain of FAK (Q05397 whole entry): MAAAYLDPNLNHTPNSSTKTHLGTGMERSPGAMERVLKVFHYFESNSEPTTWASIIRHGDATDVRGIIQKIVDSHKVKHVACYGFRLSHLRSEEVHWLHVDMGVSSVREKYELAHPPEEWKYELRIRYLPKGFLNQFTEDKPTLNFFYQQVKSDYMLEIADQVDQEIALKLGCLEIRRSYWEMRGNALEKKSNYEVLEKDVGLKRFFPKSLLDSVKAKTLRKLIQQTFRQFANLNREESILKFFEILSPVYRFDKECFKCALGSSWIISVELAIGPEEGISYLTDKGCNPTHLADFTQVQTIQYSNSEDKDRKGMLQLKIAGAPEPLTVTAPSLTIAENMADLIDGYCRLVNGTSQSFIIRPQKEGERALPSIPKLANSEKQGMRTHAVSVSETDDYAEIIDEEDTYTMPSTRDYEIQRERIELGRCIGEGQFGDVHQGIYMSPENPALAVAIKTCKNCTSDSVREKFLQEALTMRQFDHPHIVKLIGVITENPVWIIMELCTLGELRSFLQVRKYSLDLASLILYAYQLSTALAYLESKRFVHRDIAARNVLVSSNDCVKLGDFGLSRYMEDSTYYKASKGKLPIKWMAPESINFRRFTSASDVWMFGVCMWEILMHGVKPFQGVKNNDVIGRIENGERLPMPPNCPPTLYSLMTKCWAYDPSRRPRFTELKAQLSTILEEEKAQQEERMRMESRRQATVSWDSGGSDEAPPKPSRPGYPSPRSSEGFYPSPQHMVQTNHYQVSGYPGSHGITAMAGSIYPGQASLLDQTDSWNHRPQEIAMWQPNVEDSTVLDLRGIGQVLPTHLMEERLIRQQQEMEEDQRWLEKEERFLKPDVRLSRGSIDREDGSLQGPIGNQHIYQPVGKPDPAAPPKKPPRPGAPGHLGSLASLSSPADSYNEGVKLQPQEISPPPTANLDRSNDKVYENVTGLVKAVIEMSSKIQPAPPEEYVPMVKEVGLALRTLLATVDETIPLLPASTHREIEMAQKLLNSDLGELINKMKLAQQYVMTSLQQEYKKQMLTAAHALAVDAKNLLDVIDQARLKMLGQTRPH
Chain of PAK4 (O96013 whole entry): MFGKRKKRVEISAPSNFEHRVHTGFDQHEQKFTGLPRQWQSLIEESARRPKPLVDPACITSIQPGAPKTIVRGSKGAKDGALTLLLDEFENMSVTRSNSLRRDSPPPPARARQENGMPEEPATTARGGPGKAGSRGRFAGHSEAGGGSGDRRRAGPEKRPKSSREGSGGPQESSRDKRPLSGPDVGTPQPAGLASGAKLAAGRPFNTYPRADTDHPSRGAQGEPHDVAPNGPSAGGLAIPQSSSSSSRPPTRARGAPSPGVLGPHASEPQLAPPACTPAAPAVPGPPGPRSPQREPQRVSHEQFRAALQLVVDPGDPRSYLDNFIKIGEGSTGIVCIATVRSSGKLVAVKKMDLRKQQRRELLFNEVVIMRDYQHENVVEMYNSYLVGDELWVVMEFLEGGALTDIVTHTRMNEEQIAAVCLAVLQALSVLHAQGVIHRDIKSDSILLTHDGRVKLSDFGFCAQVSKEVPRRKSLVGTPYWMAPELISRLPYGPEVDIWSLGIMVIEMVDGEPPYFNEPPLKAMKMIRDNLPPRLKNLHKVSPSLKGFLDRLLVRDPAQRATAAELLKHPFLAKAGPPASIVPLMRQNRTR
Chain of AXL (P30530 26-894): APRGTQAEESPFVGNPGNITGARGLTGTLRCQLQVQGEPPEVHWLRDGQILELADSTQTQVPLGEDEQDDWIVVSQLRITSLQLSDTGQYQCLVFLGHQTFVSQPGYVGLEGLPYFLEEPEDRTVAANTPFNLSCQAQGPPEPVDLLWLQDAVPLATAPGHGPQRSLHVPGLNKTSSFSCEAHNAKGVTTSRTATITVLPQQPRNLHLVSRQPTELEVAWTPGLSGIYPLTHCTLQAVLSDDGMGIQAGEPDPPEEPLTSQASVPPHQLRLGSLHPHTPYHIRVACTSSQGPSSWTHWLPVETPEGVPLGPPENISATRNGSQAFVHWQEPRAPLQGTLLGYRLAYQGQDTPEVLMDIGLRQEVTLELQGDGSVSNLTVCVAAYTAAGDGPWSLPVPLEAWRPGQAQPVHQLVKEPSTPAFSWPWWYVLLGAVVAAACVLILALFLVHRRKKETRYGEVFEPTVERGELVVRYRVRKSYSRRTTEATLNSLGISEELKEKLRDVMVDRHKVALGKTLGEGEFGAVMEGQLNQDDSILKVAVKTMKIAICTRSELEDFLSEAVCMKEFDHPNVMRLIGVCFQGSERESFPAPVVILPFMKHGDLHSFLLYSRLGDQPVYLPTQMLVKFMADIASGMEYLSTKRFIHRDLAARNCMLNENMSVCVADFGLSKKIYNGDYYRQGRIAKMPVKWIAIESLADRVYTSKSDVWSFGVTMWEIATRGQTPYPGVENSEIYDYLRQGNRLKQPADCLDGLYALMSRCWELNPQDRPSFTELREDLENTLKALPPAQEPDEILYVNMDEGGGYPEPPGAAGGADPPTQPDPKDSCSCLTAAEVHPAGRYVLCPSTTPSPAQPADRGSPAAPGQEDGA
Chain of EPHA2 (P29317 24-976): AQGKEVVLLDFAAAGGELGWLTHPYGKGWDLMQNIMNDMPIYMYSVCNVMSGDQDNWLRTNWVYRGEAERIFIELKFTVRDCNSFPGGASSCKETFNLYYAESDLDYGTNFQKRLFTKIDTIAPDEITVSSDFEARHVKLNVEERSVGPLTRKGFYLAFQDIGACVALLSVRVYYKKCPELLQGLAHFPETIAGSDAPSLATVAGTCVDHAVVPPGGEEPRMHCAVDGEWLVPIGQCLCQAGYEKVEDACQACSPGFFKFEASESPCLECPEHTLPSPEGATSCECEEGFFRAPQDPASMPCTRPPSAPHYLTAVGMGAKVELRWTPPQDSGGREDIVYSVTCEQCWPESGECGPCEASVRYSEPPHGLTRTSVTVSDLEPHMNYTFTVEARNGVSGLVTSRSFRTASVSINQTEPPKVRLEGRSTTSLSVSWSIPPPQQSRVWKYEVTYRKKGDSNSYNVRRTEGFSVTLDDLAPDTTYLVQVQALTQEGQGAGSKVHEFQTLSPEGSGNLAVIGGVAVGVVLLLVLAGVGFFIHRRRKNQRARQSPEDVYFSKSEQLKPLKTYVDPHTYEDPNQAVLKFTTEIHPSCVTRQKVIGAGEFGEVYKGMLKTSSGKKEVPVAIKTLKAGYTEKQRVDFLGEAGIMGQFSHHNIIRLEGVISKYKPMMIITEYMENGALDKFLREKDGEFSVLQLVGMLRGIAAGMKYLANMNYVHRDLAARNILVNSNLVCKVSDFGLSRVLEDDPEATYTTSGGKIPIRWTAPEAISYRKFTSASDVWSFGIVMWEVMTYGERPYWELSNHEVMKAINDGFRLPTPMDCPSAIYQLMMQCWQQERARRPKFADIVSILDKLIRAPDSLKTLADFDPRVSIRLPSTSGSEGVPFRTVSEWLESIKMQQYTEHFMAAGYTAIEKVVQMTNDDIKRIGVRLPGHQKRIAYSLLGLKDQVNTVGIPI
Chain of ALK (Q9UM73 19-1620): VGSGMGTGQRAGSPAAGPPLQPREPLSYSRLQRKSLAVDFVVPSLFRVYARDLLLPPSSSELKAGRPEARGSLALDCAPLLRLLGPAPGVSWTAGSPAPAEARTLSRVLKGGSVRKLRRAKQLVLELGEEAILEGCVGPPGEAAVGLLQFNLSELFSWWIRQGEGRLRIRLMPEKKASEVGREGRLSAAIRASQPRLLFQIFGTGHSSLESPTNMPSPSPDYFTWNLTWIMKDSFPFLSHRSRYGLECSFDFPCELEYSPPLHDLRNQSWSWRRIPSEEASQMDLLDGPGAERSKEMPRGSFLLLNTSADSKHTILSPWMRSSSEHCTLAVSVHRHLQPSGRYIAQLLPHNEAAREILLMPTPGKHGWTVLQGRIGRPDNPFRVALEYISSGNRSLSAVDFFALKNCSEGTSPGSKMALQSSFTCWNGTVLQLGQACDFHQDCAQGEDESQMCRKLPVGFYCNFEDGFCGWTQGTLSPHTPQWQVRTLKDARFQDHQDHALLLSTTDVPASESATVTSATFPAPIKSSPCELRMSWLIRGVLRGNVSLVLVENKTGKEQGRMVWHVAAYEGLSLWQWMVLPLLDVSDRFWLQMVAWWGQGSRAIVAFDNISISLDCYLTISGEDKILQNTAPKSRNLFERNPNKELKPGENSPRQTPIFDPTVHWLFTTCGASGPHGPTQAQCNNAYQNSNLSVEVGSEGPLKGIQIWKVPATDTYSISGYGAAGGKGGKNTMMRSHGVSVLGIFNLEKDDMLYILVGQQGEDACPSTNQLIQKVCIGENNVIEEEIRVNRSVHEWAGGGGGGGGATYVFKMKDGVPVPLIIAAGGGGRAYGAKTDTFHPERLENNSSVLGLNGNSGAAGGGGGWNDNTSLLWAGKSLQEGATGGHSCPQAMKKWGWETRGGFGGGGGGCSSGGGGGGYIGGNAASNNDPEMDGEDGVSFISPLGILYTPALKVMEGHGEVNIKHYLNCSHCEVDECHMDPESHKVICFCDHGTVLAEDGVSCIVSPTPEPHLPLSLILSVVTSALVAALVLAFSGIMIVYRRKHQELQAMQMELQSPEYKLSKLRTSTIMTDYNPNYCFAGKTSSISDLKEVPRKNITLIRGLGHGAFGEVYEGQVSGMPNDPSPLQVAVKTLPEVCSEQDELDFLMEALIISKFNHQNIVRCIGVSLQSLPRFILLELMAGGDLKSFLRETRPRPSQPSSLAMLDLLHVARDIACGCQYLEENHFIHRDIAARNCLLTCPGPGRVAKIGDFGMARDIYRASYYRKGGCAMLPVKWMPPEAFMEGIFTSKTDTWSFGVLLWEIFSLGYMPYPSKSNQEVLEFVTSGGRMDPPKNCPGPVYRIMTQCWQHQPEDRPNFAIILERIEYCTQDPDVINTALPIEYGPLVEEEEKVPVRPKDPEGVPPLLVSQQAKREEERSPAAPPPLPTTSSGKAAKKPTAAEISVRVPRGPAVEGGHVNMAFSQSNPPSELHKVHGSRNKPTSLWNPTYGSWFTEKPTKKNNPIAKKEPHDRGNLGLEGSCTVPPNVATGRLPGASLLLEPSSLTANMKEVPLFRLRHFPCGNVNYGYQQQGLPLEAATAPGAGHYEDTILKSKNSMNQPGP

## C=C1CCCCCCCCCC(CO)C1=O (stereo not shown) [EP009, 2-(Hydroxymethyl)-12-methylenecyclododecanone]
Panel of protein kinases
  inhibition against the kinases tested: < 50%
ALK
  Kinase Activity (% of Control): 100 % of Control
AXL
  Kinase Activity (% of Control): 96 % of Control
EPHA2
  Kinase Activity (% of Control): 100 % of Control
FAK
  Kinase Activity (% of Control): 69 % of Control
PAK4
  Kinase Activity (% of Control): 100 % of Control
JAK3
  pIC50: 4.70 to 5.00

Source: US9371265B2, “Compositions and methods related to inhibitors of JAK kinase” (EP PHARMA, INC., priority 2012, dated 2016)
